Results on six compounds are retold here after article PMC6412401 (Molecules, 2019).

The structures appear in SMILES notation. Entries after “also recorded” stand apart in the source; their conditions may differ. Bounds are passed on as bounds.

Holding throughout (format): biochemical
The target of experiment [1] is T1, recombinant human MAO-B (Homo sapiens, UniProt P27338).
T1 construct: purchased BD Biosciences (Bedford, MA, USA)
T1 sequence (P27338 1-520): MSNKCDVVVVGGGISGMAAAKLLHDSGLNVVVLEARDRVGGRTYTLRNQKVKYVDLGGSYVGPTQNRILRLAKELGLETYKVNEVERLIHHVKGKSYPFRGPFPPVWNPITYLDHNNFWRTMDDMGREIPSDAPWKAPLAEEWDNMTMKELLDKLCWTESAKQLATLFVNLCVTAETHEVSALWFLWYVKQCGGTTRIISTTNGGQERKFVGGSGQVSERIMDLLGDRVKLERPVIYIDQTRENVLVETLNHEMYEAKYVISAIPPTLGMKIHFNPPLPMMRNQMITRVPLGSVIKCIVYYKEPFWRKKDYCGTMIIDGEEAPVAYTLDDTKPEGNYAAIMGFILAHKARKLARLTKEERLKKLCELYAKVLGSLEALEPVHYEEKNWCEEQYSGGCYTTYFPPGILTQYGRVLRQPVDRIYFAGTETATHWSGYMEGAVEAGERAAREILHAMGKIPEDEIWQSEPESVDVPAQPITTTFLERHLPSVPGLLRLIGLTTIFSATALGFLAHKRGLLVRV
Description: MAO-B inhibition assay (kynuramine oxidative deamination). The note with it: for SI MAO-A/-B: Selectivity Index = IC50 MAO-A/IC50 MAO-B; for IC50: kynuramine 50 μM, mean ± S.D. of at least triplicate observations. The method, then: (§1) To investigate the effect of the isolated constituents from T. diffusa on recombinant human MAO-A and MAO-B, the kynuramine oxidative deamination assay was performed in 384-well plates, as previously reported, with minor modifications. A single fixed concentration of kynuramine substrate and varying concentrations of inhibitor were used to test enzyme inhibition and determine the IC50 values. Kynuramine concentrations for MAO-A and MAO-B were 80 μM and 50 μM, respectively. These concentrations of kynuramine were twice the apparent KM value for substrate binding. The concentrations that were tested for pure constituents were from 0.01 to 100 μM, for MAO-A and MAO-B inhibition assays. Reactions were performed in a clear 384-well microplate (50 μL) with 0.1 M potassium phosphate buffer, pH 7.4. The inhibitors and compounds were dissolved in DMSO, diluted in the buffer solution, and pre-incubated at 37 °C for 10 min (no more than 1.0% DMSO final concentration). […] The enzyme product 4-hydroxyquinoline formation was recorded fluorometrically using a SpectraMax M5 fluorescence plate reader (Molecular Devices, Sunnyvale, CA, USA) with an excitation (320 nm) and emission (380 nm) wavelength, using the SoftMaxPro 6.0 program. The inhibition effects of enzyme activity were calculated as a percent of product formation when compared to the corresponding control (enzyme-substrate reaction) without inhibitors. Controls, including samples in which the enzyme or the substrate was added after stopping the reactions, were simultaneously checked to determine the interference of inherent fluorescence of the test compounds with the measurements. IC50 values for MAO-A and MAO-B inhibition were calculated from the concentration dependent inhibition curves using XLfit, a Microsoft Excel-based plug-in which performs Regression, curve fitting and statistical analysis (IDBS, Bridgewater, NJ, USA).
(§2) The dose-response curves were generated using Microsoft® Excel and the IC50 values were analyzed using XLfit software.

For experiment [2], the target named is T1, recombinant human MAO-B. Nature of the experiment: Time-dependent assay for enzyme inhibition. The note with it: 0.500 μM; pre-incubation 0–15 min. On the procedure:
The control without inhibitors was also run simultaneously. The activity of the enzyme was determined, as described above, and the percentage of enzyme activity remaining was plotted against the pre-incubation time to determine the time-dependence of inhibition.
The controls without inhibitors were also simultaneously run. The activities of the enzymes were determined, as described above, and the percentage of enzyme activity remaining was plotted against the pre-incubation time to determine the time-dependence of inhibition.

Another experiment has as its target T2, recombinant human MAO-A (Homo sapiens, UniProt P21397).
T2 construct: purchased BD Biosciences (Bedford, MA, USA)
T2 sequence (P21397 1-527): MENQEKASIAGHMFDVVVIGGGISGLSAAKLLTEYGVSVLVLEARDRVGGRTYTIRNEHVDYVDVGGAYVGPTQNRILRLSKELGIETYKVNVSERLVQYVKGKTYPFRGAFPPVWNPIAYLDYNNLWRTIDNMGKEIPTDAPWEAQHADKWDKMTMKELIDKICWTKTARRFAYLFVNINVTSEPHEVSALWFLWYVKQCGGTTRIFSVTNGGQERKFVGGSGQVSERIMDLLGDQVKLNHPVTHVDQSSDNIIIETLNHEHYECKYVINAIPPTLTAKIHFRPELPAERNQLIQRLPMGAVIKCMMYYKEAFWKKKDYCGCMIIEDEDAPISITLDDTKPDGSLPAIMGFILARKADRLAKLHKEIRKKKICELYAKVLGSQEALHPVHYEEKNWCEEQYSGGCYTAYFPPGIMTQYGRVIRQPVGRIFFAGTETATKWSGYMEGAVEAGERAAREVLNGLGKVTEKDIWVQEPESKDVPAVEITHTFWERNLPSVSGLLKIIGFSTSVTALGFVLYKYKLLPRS
Nature of the experiment: MAO-A inhibition assay (kynuramine oxidative deamination). Particulars: kynuramine 80 μM; mean ± S.D. of at least triplicate observations. On the procedure: as §1, §2

The target of experiment [3] is T1, recombinant human MAO-B. Description: Reversibility of binding, enzyme-inhibitor complex equilibrium dialysis. The method, then: The activity of the enzyme was analyzed before and after the dialysis (Figure 4).
The inhibitors bind with the target enzyme through the formation of an enzyme-inhibitor complex. The formation of the enzyme-inhibitor complex may be accelerated in the presence of the high concentration of the inhibitor. […] After 20 min incubation at 37 °C, the reaction was stopped by chilling in an ice bath. All of the samples were dialyzed against potassium phosphate buffer (25 mM; pH 7.4) at 4 °C for 14–18 h (three buffer changes). Control enzyme (without inhibitor) was also run through the same procedure and the activity of the enzyme was determined before and after the dialysis.
Background: In equilibrium dialysis free small molecules cross a membrane that holds back macromolecules.

Experiment [4] has as its target T1, recombinant human MAO-B. Description: Enzyme kinetics and mechanism studies (Lineweaver-Burk). The note with it: for Type of Inhibition Monoamine Oxidase-B: mechanism / reversibility. On the procedure: The assays were run at varying concentrations of the substrate and fixed concentrations of the inhibitor. The Ki (i.e., inhibition/binding affinity) values were computed with double reciprocal Lineweaver–Burk plots.
The controls without inhibitor were also simultaneously run. The results were analyzed by standard double reciprocal Line–Weaver Burk plots for computing Km and Vmax values, which were further analyzed to determine Ki values.

As for `COc1ccc(-c2cc(=O)c3c(O)cc(OC)cc3o2)cc1` [Acacetin 7-methyl ether, 5-hydroxy-4′, 7-dimethoxyflavone], at recombinant human MAO-B [1], the “selectivity for MAO-B over MAO-A” value is reported as more than 500 fold; the “SI MAO-A/-B” value is listed as more than 505.051; the 50% inhibitory concentration (IC50) (in general, the concentration needed to halve the response being measured) amounted to 0.198 ± 0.001 µM. In addition, the “plateau of concentration-dependent inhibition of MAO-B” value on recombinant human MAO-B [1] (higher concentrations, ~20% activity remaining) is reported as ~ 80 % inhibition. For the same compound, the “time dependence of binding/inhibition of MAO-B” value on recombinant human MAO-B [2] is “time-independent; also recorded: not dependent on the pre-incubation time”. Also, at recombinant human MAO-A, the IC50 was more than 100 µM. Besides, at recombinant human MAO-B [3] (1.0 and 2.0 μM, 20 min incubation), the “inhibition of MAO-B activity after incubation, before dialysis” value is recorded as more than 60%. For the same compound, the “activity of the enzyme recovered after equilibrium dialysis” value at recombinant human MAO-B [3] (1.0 and 2.0 μM, dialyzed overnight) is on record as ~ 80%. On recombinant human MAO-B [3] (equilibrium dialysis), the “reversibility of binding to MAO-B” value is “partially reversible”. The “Type of Inhibition Monoamine Oxidase-B” value on recombinant human MAO-B [4] is on record as “Competitive/Partially Reversible”. For the same compound, on recombinant human MAO-B [4] (listed as acacetin 7-methyl ether), the “Type of Inhibition Monoamine Oxidase-B” value was “reversible competitive inhibitor”. In addition, on recombinant human MAO-B [4] (varying kynuramine, mean ± S.D. of triplicate experiments, read-out: Ki Monoamine Oxidase-B), the inhibition constant Ki (commonly a dissociation constant, usually derived from enzyme kinetics or from competition with a known ligand) came out at 0.045 ± 0.003 µM.

Regarding `COc1ccc(-c2cc(=O)c3c(O)cc(O)cc3o2)cc1` [Acacetin], at recombinant human MAO-A, the half-inhibitory concentration (IC50) worked out at 0.115 ± 0.004 µM. The “Type of Inhibition Monoamine Oxidase-B” value on recombinant human MAO-B [4] is recorded as “Competitive/Reversible”.

Consider `O=C(/C=C/c1ccc(O)cc1)OC[C@H]1O[C@@H](Oc2cc(O)c3c(=O)cc(-c4ccc(O)cc4)oc3c2)[C@H](O)[C@@H](O)[C@@H]1O` [Apigenin-7-O-β-D-(6-O-p-coumaroyl) glucoside], for which, at recombinant human MAO-B [1], the “SI MAO-A/-B” value came out at 1.023 and the IC50 stood at 22 ± 1.76 µM. Moreover, the IC50 at recombinant human MAO-A worked out at 22.5 ± 4.44 µM.

For the compound `C[C@@H]1O[C@@H](O[C@@H]2[C@@H](O)[C@H](O)[C@@H](CO)O[C@H]2c2c(O)cc(O)c3c(=O)cc(-c4ccc(O)cc4)oc23)[C@H](O)[C@H](O)[C@H]1O` [Rhamnosylvitexin], on recombinant human MAO-B [1], the “SI MAO-A/-B” value amounted to 1.557 and the 50% inhibitory concentration (IC50) was 26.3 ± 0.277 µM. The concentration for half-maximal inhibition (IC50) on recombinant human MAO-A was found to be 40.9 ± 6.81 µM.

`COc1cc(-c2cc(=O)c3c(O)cc(O[C@@H]4O[C@H](CO)[C@@H](O)[C@H](O)[C@H]4O)cc3o2)cc(OC)c1O` [Tricin-7-glucoside]: at recombinant human MAO-B [1], the “SI MAO-A/-B” value is given as 1.854 and the IC50 came out at 27.4 ± 0.819 µM. On recombinant human MAO-A, the half-maximal inhibitory concentration (IC50) was determined as 50.9 ± 0.506 µM.

For the compound `COc1cc(O)c2c(=O)cc(-c3ccc(O)c(OC)c3)oc2c1` [Vetulin], the “SI MAO-A/-B” value on recombinant human MAO-B [1] was 42.056. Besides, the values for the IC50 at recombinant human MAO-B [1] and at recombinant human MAO-A were 0.447 ± 0.01 µM and 18.8 ± 0.291 µM, respectively.
